Reference: patent US11214567B2, “Small molecule inhibitors of MYC and uses thereof” (The Regents of the University of Michigan, priority 2017, dated 2022)
“Also recorded” adds a separate entry of the source.

Key:
[1] = tested on: OVCAR8; assay: MTT assay (cytotoxicity), OVCAR8; assay type: cell-based; conditions: Homo sapiens, OVCAR-8, 72 h, drug concentration causing a 50% decrease in cell population
Experimental: (§1) The evaluation of cytotoxicity was based on the reduction of MTT dye by viable cells to give purple formazan products, which can be measured spectrophotometrically at 540 nm. One hundred eighty microliters of cancer cells were seeded into 96-well plates at 3,500-4,000 cells/well and incubated at 37° C. overnight before the indicated treatments. After 72 h, 20 μl of MTT solution (3 mg/ml) was added and incubated again for 3 h. After removal of media and solubilization of formazan crystals in 150 μL of DMSO, the absorbance was measured at 570 nm. Percentage of cell growth inhibition was expressed as 1-[(A−B)/(C−B)]×100% (A, B and C were the absorbance values from experimental, blank and control cells, respectively).
(§2) KJA derivatives were tested by the MTT assay against five human cancer cell lines including ovarian cancer cell lines (OVCAR-8, NCI/ADR-RES and SKOV3) and pancreatic cancer cell lines (MIA PaCa-2 and Pac-1). […] It is important to note that the NCI/ADR-RES cell line shares a large number of karyotypic abnormalities with OVCAR-8 but expresses high levels of MDR1 (multidrug resistance protein 1)/P-glycoprotein (see, e.g., Xu, S.; et al., Proceedings of the National Academy of Sciences 2012, 109, 16348-16353), resulting in resistance to multiple anticancer drugs in clinical use, including paclitaxel and doxorubicin.

[2] = tested on: NCI/ADR-RES; assay: MTT assay (cytotoxicity), NCI/ADR-RES; assay type: cell-based, human
Experimental: as §1, §2

[3] = tested on: SKOV3; assay: MTT assay (cytotoxicity), SKOV3; assay type: cell-based; conditions: Homo sapiens, SK-OV-3, 72 h, drug concentration causing a 50% decrease in cell population
Experimental: as §1, §2

[4] = tested on: MIA PaCa-2; assay: MTT assay (cytotoxicity), MIA PaCa-2; assay type: cell-based; conditions: Homo sapiens, 72 h, drug concentration causing a 50% decrease in cell population
Experimental: as §1, §2

[5] = tested on: Panc1; assay: MTT assay (cytotoxicity), Panc1; assay type: cell-based; conditions: Homo sapiens, PANC-1, 72 h, drug concentration causing a 50% decrease in cell population
Experimental: as §1, §2

[6] = tested on: NCI/ADR-RES cells; assay: Colony formation assay; assay type: cell-based, human; conditions: 24 h treatment; low concentration
Experimental: Colony formation assay. Colony formation assay is an in vitro cell survival assay based on the ability of a single cell to grow into a colony. This technique was also performed to confirm the activity. Briefly, cells were plated in 96-well plates at a density of 300 cells/well and allowed to attach overnight. The next day, the corresponding compounds were added and allowed to incubate for 24 h. After exposure, cells were changed the new media and cultured until colonies were formed (7-10 days). Cells were subsequently washed and stained with a solution of crystal violet for 30 min. After staining, cells were thoroughly washed with water. Colonies were imaged on the inverted fluorescence microscope and were counted using ImageJ software.

[7] = tested on: GLIPR1; assay: Western blotting of GLIPR1 protein levels; assay type: cell-based, human; conditions: NCI/ADR-RES; Western blot
[8] = tested on: NCI/ADR-RES cell line; assay: Bru-seq, changes in transcription; assay type: cell-based, human
From the text: Furthermore, to better understand the potential mechanism of KJA03, we performed Bru-seq to examine the global changes in transcription in NCI/ADR-RES cells.

[9] = tested on: tumor; assay: Tumor size, body weight and gross toxicity in treated mice; assay type: in vivo
From the text: Error bars indicate Mean±SEM. and *p<0.05.

## Cc1ccc(-c2noc(-c3ccccc3-n3c(-c4ccc(C)cc4)noc3=O)n2)cc1 [KJA03, 3-(P-tolyl)-4-(2-(3-(p-tolyl)-1,2,4-oxadiazol-5-yl)phenyl)-1,2,4-oxadiazol-5(4H)-one]
[1]
  IC50: 140 ± 50 nM
[2]; Homo sapiens, NCI/ADR-RES, MTT, 72 h, drug concentration causing a 50% decrease in cell population
  IC50: 200 ± 60 nM
[2]; MTT assay after 72 h treatment
  growth of NCI/ADR-RES: inhibited growth
[3]
  IC50: 310 ± 160 nM
[4]
  IC50: 130 nM
[5]
  IC50: 170 nM
[6]
  colony formation in NCI/ADR-RES: significantly inhibited colony formation
[7]
  GLIPR1 protein levels: gradually upregulated; also recorded: up-regulated
[8]
  expression of LAMC2, TAGLN, CSRP1, SLC4A4, LAMB3, and LPP genes: significantly increase
[8]; NCI/ADR-RES, 0.4 uM, 4 hours
  Fold-Change ACTC1: 2.238 fold
  Fold-Change APOBEC3: 0.309 fold
  Fold-Change ARMCX1: 0.417 fold
  Fold-Change ATP5I: 0.496 fold
  Fold-Change AURKAIP1: 0.413 fold
  Fold-Change BHLHE40: 2.683 fold
  Fold-Change C19orf33: 0.378 fold
  Fold-Change CNO: 0.395 fold
  Fold-Change CSRP1: 2.335 fold
  Fold-Change EGR1: 0.198 fold
  Fold-Change EXOSC4: 0.493 fold
  Fold-Change FJX1: 0.469 fold
  Fold-Change GALNT4: 0.356 fold
  Fold-Change GLIPR1: 2.574 fold
  Fold-Change HIST1H2A1: 0.483 fold
  Fold-Change HIST1H2AB: 0.362 fold
  Fold-Change HIST1H2AE: 0.471 fold
  Fold-Change HIST1H2AG: 0.45 fold
  Fold-Change HIST1H2BL: 0.441 fold
  Fold-Change HIST1H2BM: 0.193 fold
  Fold-Change HIST1H2BN: 0.378 fold
  Fold-Change HIST1H3B: 0.432 fold
  Fold-Change HIST1H3F: 0.322 fold
  Fold-Change HIST1H3G: 0.496 fold
  Fold-Change HIST1H3H: 0.136 fold
  Fold-Change HIST1H4C: 0.338 fold
  Fold-Change HIST1H4H: 0.324 fold
  Fold-Change HIST1H4L: 0.416 fold
  Fold-Change HIST2H2AC: 0.29 fold
  Fold-Change HIST3H2BB: 0.446 fold
  Fold-Change HIST4H4: 0.483 fold
  Fold-Change HOXA1: 0.491 fold
  Fold-Change HOXC: 0.477 fold
  Fold-Change HOXC4: 0.4 fold
  Fold-Change HSD17B10: 0.415 fold
  Fold-Change ILE: 2.485 fold
  Fold-Change INGX: 3.089 fold
  Fold-Change LAMB3: 2.089 fold
  Fold-Change LAMC2: 3.217 fold
  Fold-Change LINC00312: 2.165 fold
  Fold-Change LINC00493: 0.452 fold
  Fold-Change LOC100630918: 0.494 fold
  Fold-Change LPP: 2.032 fold
  Fold-Change LSMD1: 2.261 fold
  Fold-Change MRPL34: 0.416 fold
  Fold-Change MRPL41: 0.496 fold
  Fold-Change MRPS26: 0.432 fold
  Fold-Change MYADM: 2.114 fold
  Fold-Change PA2G4P4: 0.463 fold
  Fold-Change RPL23AP32: 2.141 fold
  Fold-Change RPS19BP1: 0.49 fold
  Fold-Change SCARNA2: 0.401 fold
  Fold-Change SCARNA10: 0.487 fold
  Fold-Change SCARNA17: 0.496 fold
  Fold-Change SDPR: 0.497 fold
  Fold-Change SFTA1P: 0.387 fold
  Fold-Change SLC4A4: 2.18 fold
  Fold-Change SNRNP25: 0.463 fold
  Fold-Change SSSCA1: 0.386 fold
  Fold-Change TAGLN: 2.648 fold
  Fold-Change TCEAL1: 0.455 fold
  Fold-Change TMEM133: 2.846 fold
  Fold-Change TNFAIP3: 2.192 fold
  Fold-Change TPBG: 0.374 fold
  Fold-Change TUBB2B: 0.461 fold
  Fold-Change TWIST1: 0.319 fold
  Fold-Change TXNIP: 0.281 fold
[9]; mice, 10 mg/kg, *p<0.05
  tumor sizes: tumor sizes were reduced
[9]; mouse, in vivo
  gross toxicity such as weakness, weight loss or lethargy: no symptoms of gross toxicity
